This assay has as its system 4 PI3K isoforms (Human recombinant GST-PI3K). In words: PI3K scintillation proximity assay, best IC50 obtained with the four isoforms (alpha, beta, delta, gamma). It counts as biochemical. As to conditions: best IC50 obtained with the four isoforms of PI3K; read-out: Best potency measured on the 4 PI3K isoforms. On the technique in general: SPA uses beads or plates that emit light when radiolabelled molecules are held near them.
As to `O=C(c1nn(C2CCCN(c3ccccc3)C2)c2c1CS(=O)(=O)c1ccccc1-2)N1CCOCC1` (stereo not shown) [Example 218, 3-(Morpholin-4-ylcarbonyl)-1-(1-phenylpiperidin-3-yl)-1,4-dihydrothiochromeno[4,3-c]pyrazole 5,5-dioxide], the IC50 came to 468 nM. In the case of `O=C(c1nn(C2CCCN(CCc3ccccc3)C2)c2c1CS(=O)(=O)c1ccccc1-2)N1CCOCC1` (stereo not shown) [Example 219, 3-(Morpholin-4-ylcarbonyl)-1-[1-(2-phenylethyl)piperidin-3-yl]-1,4-dihydrothiochromeno[4,3-c]pyrazole 5,5-dioxide] it was 711 nM; in that of `CC(C)(C)CCN1CCCC(n2nc(C(=O)N3CCOCC3)c3c2-c2ccccc2S(=O)(=O)C3)C1` (stereo not shown) [Example 220, 1-[1-(3,3-Dimethylbutyl)piperidin-3-yl]-3-(morpholin-4-ylcarbonyl)-1,4-dihydrothiochromeno[4,3-c]pyrazole 5,5-dioxide], 587 nM; in that of `O=C(c1nn(C2CCCN(CCC(F)(F)F)C2)c2c1CS(=O)(=O)c1ccccc1-2)N1CCOCC1` (stereo not shown) [Example 222, 3-(Morpholin-4-ylcarbonyl)-1-[1-(3,3,3-trifluoropropyl)piperidin-3-yl]-1,4-dihydrothiochromeno[4,3-c]pyrazole 5,5-dioxide], 149 nM. Regarding `O=C(c1nn(C2CCCN(CCC3CCOCC3)C2)c2c1CS(=O)(=O)c1ccccc1-2)N1CCOCC1` (stereo not shown) [Example 224, 3-(Morpholin-4-ylcarbonyl)-1-{1-[2-(tetrahydro-2H-pyran-4-yl)ethyl]piperidin-3-yl)-1,4-dihydrothiochromeno[4,3-c]pyrazole 5,5-dioxide], the IC50 stood at 54 nM. In the case of `COCCOCCN1CCCC(n2nc(C(=O)N3CCOCC3)c3c2-c2ccccc2S(=O)(=O)C3)C1` (stereo not shown) [Example 225, 1-{1-[2-(2-Methoxyethoxy)ethyl]piperidin-3-yl}-3-(morpholin-4-ylcarbonyl)-1,4-dihydrothiochromeno[4,3-c]pyrazole 5,5-dioxide] it was 635 nM. As for `O=C(c1nn(-c2ccc(CN3CCCC3)cc2)c2c1CS(=O)(=O)c1ccccc1-2)N1CCOCC1` [Example 228, 3-(Morpholin-4-ylcarbonyl)-1-[4-(pyrrolidin-1-ylmethyl)phenyl]-1,4-dihydrothiochromeno[4,3-c]pyrazole 5,5-dioxide], the IC50 was found to be 285 nM. As for `CS(=O)(=O)C1CCN(Cc2ccc(-n3nc(C(=O)N4CCOCC4)c4c3-c3ccccc3S(=O)(=O)C4)cc2)C1` (stereo not shown) [Example 229, 1-(4-{[3-(Methylsulfonyl)pyrrolidin-1-yl]methyl}phenyl)-3-(morpholin-4-ylcarbonyl)-1,4-dihydrothiochromeno[4,3-c]pyrazole 5,5-dioxide], the figure is 920 nM; as for `CCc1noc(Cn2nc(C(=O)N3CCOCC3)c3c2-c2ccccc2S(=O)(=O)C3)n1` [Example 230, 1-[(3-Ethyl-1,2,4-oxadiazol-5-yl)methyl]-3-(morpholin-4-ylcarbonyl)-1,4-dihydrothiochromeno[4,3-c]pyrazole 5,5-dioxide], 1920 nM; as for `COC(=O)c1ccc(Cn2nc(C(=O)N3CCOCC3)c3c2-c2ccccc2S(=O)(=O)C3)o1` [Example 231, Methyl 5-{[3-(morpholin-4-ylcarbonyl)-5,5-dioxidothiochromeno[4,3-c]pyrazol-1(4H)-yl]methyl}-2-furoate], 431 nM.

Turning to `COc1cccc(Cn2nc(C(=O)N3CCOCC3)c3c2-c2ccccc2S(=O)(=O)C3)c1` [Example 232, 1-(3-Methoxybenzyl)-3-(morpholin-4-ylcarbonyl)-1,4-dihydrothiochromeno[4,3-c]pyrazole 5,5-dioxide], the IC50 worked out at 1170 nM. As for `CC(C)CCOC1CCN(Cc2ccc(-n3nc(C(=O)N4CCOCC4)c4c3-c3ccccc3S(=O)(=O)C4)cc2)C1` (stereo not shown) [Example 233, 1-(4-{[3-(3-Methylbutoxy)pyrrolidin-1-yl]methyl}phenyl)-3-(morpholin-4-ylcarbonyl)-1,4-dihydrothiochromeno[4,3-c]pyrazole 5,5-dioxide], the figure is 167 nM; as for `COC1CCN(Cc2cccc(-n3nc(C(=O)N4CCOCC4)c4c3-c3ccccc3S(=O)(=O)C4)c2)CC1` [Example 234, 1-{3-[(4-Methoxypiperidin-1-yl)methyl]phenyl}-3-(morpholin-4-ylcarbonyl)-1,4-dihydrothiochromeno[4,3-c]pyrazole 5,5-dioxide], 240 nM. In the case of `CC(C)CCOC1CCN(Cc2cccc(-n3nc(C(=O)N4CCOCC4)c4c3-c3ccccc3S(=O)(=O)C4)c2)C1` (stereo not shown) [Example 235, 1-(3-{[3-(3-Methylbutoxy)pyrrolidin-1-yl]methyl}phenyl)-3-(morpholin-4-ylcarbonyl)-1,4-dihydrothiochromeno[4,3-c]pyrazole 5,5-dioxide] it was 389 nM. In the case of `O=C(c1nn(-c2cccc(CN3CCSCC3)c2)c2c1CS(=O)(=O)c1ccccc1-2)N1CCOCC1` [Example 236, 3-(Morpholin-4-ylcarbonyl)-1-[3-(thiomorpholin-4-ylmethyl)phenyl]-1,4-dihydrothiochromeno[4,3-c]pyrazole 5,5-dioxide], the IC50 is 232 nM. In the case of `O=C(c1nn(-c2cccc(CN3CCC(O)CC3)c2)c2c1CS(=O)(=O)c1ccccc1-2)N1CCOCC1` [Example 237, 1-{3-[3-(Morpholin-4-ylcarbonyl)-5,5-dioxidothiochromeno[4,3-c]pyrazol-1 (4H)-yl]benzyl}piperidin-4-ol] it was 573 nM; in that of `O=C(O)c1nn(-c2ccc(CN3CCOCC3)cc2)c2c1CS(=O)(=O)c1ccccc1-2` [Example 238, 1-[4-(Morpholin-4-ylmethyl)phenyl]-1,4-dihydrothiochromeno[4,3-c]pyrazole-3-carboxylic acid 5,5-dioxide], 4040 nM; in that of `O=C(c1nn(Cc2nc3ccccc3s2)c2c1CS(=O)(=O)c1ccccc1-2)N1CCOCC1` [Example 239, 1-(1,3-Benzothiazol-2-ylmethyl)-3-(morpholin-4-ylcarbonyl)-1,4-dihydrothiochromeno[4,3-c]pyrazole 5,5-dioxide], 1490 nM. As for `O=C(c1nn(Cc2cc(Cl)cs2)c2c1CS(=O)(=O)c1ccccc1-2)N1CCOCC1` [Example 240, 1-[(4-Chloro-2-thienyl)methyl]-3-(morpholin-4-ylcarbonyl)-1,4-dihydrothiochromeno[4,3-c]pyrazole 5,5-dioxide], the figure is 624 nM; as for `O=C(c1nn(-c2cccc(CN3CCC(F)CC3)c2)c2c1CS(=O)(=O)c1ccccc1-2)N1CCOCC1` [Example 242, 1-{3-[(4-Fluoropiperidin-1-yl)methyl]phenyl}-3-(morpholin-4-ylcarbonyl)-1,4-dihydrothiochromeno[4,3-c]pyrazole 5,5-dioxide], 437 nM; as for `CS(=O)(=O)C1CCN(Cc2cccc(-n3nc(C(=O)N4CCOCC4)c4c3-c3ccccc3S(=O)(=O)C4)c2)C1` (stereo not shown) [Example 243, 1-(3-{[3-(Methylsulfonyl)pyrrolidin-1-yl]methyl}phenyl)-3-(morpholin-4-ylcarbonyl)-1,4-dihydrothiochromeno[4,3-c]pyrazole 5,5-dioxide], 464 nM.

Turning to `O=C(c1nn(-c2cccc(CN3CCCC(F)(F)C3)c2)c2c1CS(=O)(=O)c1ccccc1-2)N1CCOCC1` [Example 244, 1-{3-[(3,3-Difluoropiperidin-1-yl)methyl]phenyl}-3-(morpholin-4-ylcarbonyl)-1,4-dihydrothiochromeno[4,3-c]pyrazole 5,5-dioxide], the IC50 turned out to be 1540 nM.

On to `O=C(c1nn(-c2cccc(CN3CCCC3)c2)c2c1CS(=O)(=O)c1ccccc1-2)N1CCOCC1` [Example 245, 3-(Morpholin-4-ylcarbonyl)-1-[3-(pyrrolidin-1-ylmethyl)phenyl]-1,4-dihydrothiochromeno[4,3-c]pyrazole 5,5-dioxide], for which the IC50 came out at 516 nM. For `O=C(c1nn(C2CCOCC2)c2c1CS(=O)(=O)c1sccc1-2)N1CCOCC1` [Example 246, 3-(Morpholin-4-ylcarbonyl)-1-(tetrahydro-2H-pyran-4-yl)-1,4-dihydrothieno[3′,2′:5,6]thiopyrano[4,3-c]pyrazole 5,5-dioxide], the IC50 came to 824 nM. As for `O=C(c1nn(-c2cccc(CN3CCS(=O)(=O)CC3)c2)c2c1CS(=O)(=O)c1ccccc1-2)N1CCOCC1` [Example 247, 1-{3-[(1,1-Dioxidothiomorpholin-4-yl)methyl]phenyl}-3-(morpholin-4-ylcarbonyl)-1,4-dihydrothiochromeno[4,3-c]pyrazole 5,5-dioxide], the figure is 639 nM; as for `COCc1cccc(-n2nc(C(=O)N3CCOCC3)c3c2-c2ccccc2S(=O)(=O)C3)c1` [Example 248, 1-[3-(Methoxylmethyl)phenyl]-3-(morpholin-4-ylcarbonyl)-1,4-dihydrothiochromeno[4,3-c]pyrazole 5,5-dioxide], 997 nM. As to `O=C(c1nn(C2CCOCC2)c2c1CS(=O)(=O)c1c(F)cccc1-2)N1CCOCC1` [Example 249, 6-Fluoro-3-(morpholin-4-ylcarbonyl)-1-(tetrahydro-2H-pyran-4-yl)-1,4-dihydrothiochromeno[4,3-c]pyrazole 5,5-dioxide], the IC50 turned out to be 1030 nM. In the case of `NC(=O)c1cccc2c1S(=O)(=O)Cc1c(C(=O)N3CCOCC3)nn(-c3ccccc3)c1-2` [Example 250, 3-(Morpholin-4-ylcarbonyl)-1-phenyl-1,4-dihydrothiochromeno[4,3-c]pyrazole-6-carboxamide 5,5-dioxide] it was 7900 nM; in that of `CN1CCN(Cc2ccc(-n3nc(C(=O)N4CCOCC4)c4c3-c3ccccc3S(=O)(=O)C4)cn2)CC1` [Example 252, 1-{6-[(4-Methylpiperazin-1-yl)methyl]pyridin-3-yl}-3-(morpholin-4-ylcarbonyl)-1,4-dihydrothiochromeno[4,3-c]pyrazole 5,5-dioxide], 335 nM. As for `CN(C)CCN1CCCC(n2nc(C(=O)N3CCOCC3)c3c2-c2ccccc2S(=O)(=O)C3)C1` (stereo not shown) [Example 253, N,N-Dimethyl-2-{3-[3-(morpholin-4-ylcarbonyl)-5,5-dioxidothiochromeno[4,3-c]pyrazol-1 (4H)-yl]piperidin-1-yl}ethanamine], the figure is 72 nM; as for `CC(C)(C)OC(=O)N1CCC(n2nc(C(=O)N3CCOCC3)c3c2-c2ccccc2S(=O)(=O)C3)C1` (stereo not shown) [Example 254], 1200 nM.

The values are drawn from patent US9073940B2, “Tricyclic pyrazol amine derivatives” (MERCK SERONO SA, priority 2009, dated 2015).
